# Assay results published in ChEMBL document CHEMBL4184281, “Pharmacology and in vivo efficacy of pyridine-pyrimidine amides that inhibit microtubule polymerization” (Bioorg Med Chem Lett, 2018).
# Calls of active or inactive are those of the source. The calls are words filed in the database; no cut-off is given here.
# Legend:
# [1] = Toxicity in mouse; assay type: organism-based; conditions: in vivo
# [2] = tested on: SNU-16; assay: Antitumor activity against human SNU16 cells xenografted in nude BALB/c mouse assessed as tumor growth inhibition relative to control; assay type: functional
# [3] = Tmax in CD-1 mouse administered as single po dose by mass spectrometry; assay type: ADME, organism-based; conditions: in vivo
# [4] = tested on: Mus musculus; assay: Toxicity in nude BALB/c mouse xenografted with human MFE296 cells assessed as body weight loss at 15 mg/kg, po qd administered via gavage for 10 days measured after 6 days; assay type: organism-based; conditions: in vivo, 144 h
# [5] = tested on: Hs-578T; assay: Antiproliferative activity against paclitaxel-resistant human Hs 578T cells 10C clone up to 1000 nM after 72 hrs by ATPlite assay; assay type: functional, cell-based
# [6] = tested on: A2780; assay: Antitumor activity against human A2780 cells xenografted in nude BALB/c mouse assessed as tumor growth inhibition at 15 mg/kg, po administered every other day measured up to 12 days post dose; assay type: functional, organism-based
# [7] = Stability in human plasma assessed as parent compound remaining after 75 mins relative to initial time; assay type: ADME, cell-free; conditions: read-out: Stability
# [8] = tested on: BT-549; assay: Antiproliferative activity against human BT549 cells up to 1000 nM after 72 hrs by ATPlite assay; assay type: functional, cell-based
# [9] = tested on: Mus musculus; assay: Toxicity in NOD/SCID mouse xenografted with chemo-refractory disease patient-derived breast cancer cells at 10 mg/kg, po qd administered via gavage for 60 days; assay type: organism-based; conditions: in vivo, 1440 h
# [10] = biological target: T1, Cytochrome P450 1A2 (Homo sapiens, UniProt P05177); assay: Inhibition of CYP1A2 (unknown origin); assay type: ADME
# T1 sequence (P05177 whole entry): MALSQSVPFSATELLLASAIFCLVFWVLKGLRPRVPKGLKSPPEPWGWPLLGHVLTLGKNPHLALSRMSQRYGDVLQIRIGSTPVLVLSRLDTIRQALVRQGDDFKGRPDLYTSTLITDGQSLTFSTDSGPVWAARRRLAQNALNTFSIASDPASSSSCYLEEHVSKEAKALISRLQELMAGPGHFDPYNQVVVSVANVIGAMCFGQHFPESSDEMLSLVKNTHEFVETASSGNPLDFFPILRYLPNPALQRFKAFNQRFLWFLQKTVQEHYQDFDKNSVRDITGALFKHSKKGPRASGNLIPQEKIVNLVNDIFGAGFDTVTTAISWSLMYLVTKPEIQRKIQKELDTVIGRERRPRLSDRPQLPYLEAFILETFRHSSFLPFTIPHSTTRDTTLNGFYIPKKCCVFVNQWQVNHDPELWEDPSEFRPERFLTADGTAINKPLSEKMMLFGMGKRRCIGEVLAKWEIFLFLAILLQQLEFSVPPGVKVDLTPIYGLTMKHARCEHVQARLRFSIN
# [11] = tested on: Hs-578T; assay: Antiproliferative activity against human Hs 578T cells up to 1000 nM after 72 hrs by ATPlite assay; assay type: functional, cell-based
# [12] = biological target: Cytochrome P450 2C19 (Homo sapiens, UniProt P33261); assay: Inhibition of CYP2C19 (unknown origin); assay type: ADME
# Chain of Cytochrome P450 2C19 (P33261 whole entry): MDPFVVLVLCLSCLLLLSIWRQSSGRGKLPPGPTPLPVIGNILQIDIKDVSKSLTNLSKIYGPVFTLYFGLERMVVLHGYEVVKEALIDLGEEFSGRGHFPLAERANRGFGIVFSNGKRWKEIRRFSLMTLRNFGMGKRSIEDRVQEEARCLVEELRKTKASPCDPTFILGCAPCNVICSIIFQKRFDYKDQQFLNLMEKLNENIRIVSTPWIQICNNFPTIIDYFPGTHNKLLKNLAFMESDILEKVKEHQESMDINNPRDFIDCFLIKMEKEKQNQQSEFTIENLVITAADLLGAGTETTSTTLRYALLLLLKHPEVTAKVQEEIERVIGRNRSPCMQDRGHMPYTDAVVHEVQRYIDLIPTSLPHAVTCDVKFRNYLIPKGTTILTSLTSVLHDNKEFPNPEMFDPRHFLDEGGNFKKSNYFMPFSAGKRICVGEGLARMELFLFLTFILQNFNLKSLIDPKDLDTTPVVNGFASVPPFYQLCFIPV
# [13] = Half life in dog liver microsomes; assay type: ADME, Canis lupus familiaris, microsome
# [14] = Half life in mouse liver microsomes; assay type: ADME, microsome
# [15] = in vitro; conditions: human, Caco-2
# Description: Apparent intrinsic permeability in human Caco2 cells from basolateral to apical side after 120 mins by mass spectrometry
# [16] = tested on: Breast carcinoma cell; assay: Antitumor activity against chemo-refractory disease patient-derived breast cancer cells xenografted in NOD/SCID mouse assessed as tumor growth inhibition at 10 mg/kg, po qd administered via gavage for 15 days; assay type: functional, organism-based; conditions: Homo sapiens
# [17] = tested on: Breast carcinoma cell; assay: Antitumor activity against chemo-refractory disease patient-derived breast cancer cells xenografted in NOD/SCID mouse assessed as tumor regression at 10 mg/kg, po qd administered via gavage for 60 days; assay type: functional, organism-based; conditions: Homo sapiens
# [18] = Stability in human plasma assessed as parent compound remaining after 2 hrs relative to initial time; assay type: ADME, cell-free; conditions: read-out: Stability
# [19] = tested on: MDA-MB-436; assay: Antiproliferative activity against human MDA-MB-436 cells up to 1000 nM after 72 hrs by ATPlite assay; assay type: functional, cell-based
# [20] = in vitro; conditions: human, Caco-2; remark: listed apart in the source
# Description: Apparent intrinsic permeability in human Caco2 cells from apical to basolateral side after 120 mins by mass spectrometry
# [21] = Stability in human plasma assessed as parent compound remaining after 4 hrs relative to initial time; assay type: ADME, cell-free; conditions: read-out: Stability
# [22] = Drug recovery in plasma (unknown origin); assay type: ADME, cell-free
# [23] = biological target: Cytochrome P450 3A4 (Homo sapiens, UniProt P08684); assay: Inhibition of CYP3A4 (unknown origin); assay type: ADME
# Chain of Cytochrome P450 3A4 (P08684 whole entry): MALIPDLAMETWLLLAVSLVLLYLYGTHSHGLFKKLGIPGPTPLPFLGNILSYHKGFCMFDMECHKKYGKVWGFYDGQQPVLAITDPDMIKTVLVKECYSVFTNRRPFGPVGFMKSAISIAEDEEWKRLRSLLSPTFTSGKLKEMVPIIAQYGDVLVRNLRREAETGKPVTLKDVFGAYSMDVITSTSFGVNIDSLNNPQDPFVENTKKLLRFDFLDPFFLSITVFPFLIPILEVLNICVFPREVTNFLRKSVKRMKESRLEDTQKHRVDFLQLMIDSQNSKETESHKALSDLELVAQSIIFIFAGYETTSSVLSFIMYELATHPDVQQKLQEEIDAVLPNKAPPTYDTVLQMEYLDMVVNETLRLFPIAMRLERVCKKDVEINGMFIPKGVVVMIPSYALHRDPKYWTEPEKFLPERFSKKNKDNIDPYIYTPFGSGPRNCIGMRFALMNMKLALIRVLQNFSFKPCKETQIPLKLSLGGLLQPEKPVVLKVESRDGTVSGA
# [24] = tested on: Hs-578T; assay: Antiproliferative activity against paclitaxel-resistant human Hs 578T cells 20B clone up to 1000 nM after 72 hrs by ATPlite assay; assay type: functional, cell-based
# [25] = tested on: Mus musculus; assay: Toxicity in nude BALB/c mouse xenografted with human MFE296 cells assessed as body weight loss at 3.75 to 7.5 mg/kg, po qd administered via gavage for 10 days; assay type: organism-based; conditions: in vivo, 240 h
# [26] = biological target: Cytochrome P450 2C9 (Homo sapiens, UniProt P11712); assay: Inhibition of CYP2C9 (unknown origin); assay type: ADME
# Chain of Cytochrome P450 2C9 (P11712 whole entry): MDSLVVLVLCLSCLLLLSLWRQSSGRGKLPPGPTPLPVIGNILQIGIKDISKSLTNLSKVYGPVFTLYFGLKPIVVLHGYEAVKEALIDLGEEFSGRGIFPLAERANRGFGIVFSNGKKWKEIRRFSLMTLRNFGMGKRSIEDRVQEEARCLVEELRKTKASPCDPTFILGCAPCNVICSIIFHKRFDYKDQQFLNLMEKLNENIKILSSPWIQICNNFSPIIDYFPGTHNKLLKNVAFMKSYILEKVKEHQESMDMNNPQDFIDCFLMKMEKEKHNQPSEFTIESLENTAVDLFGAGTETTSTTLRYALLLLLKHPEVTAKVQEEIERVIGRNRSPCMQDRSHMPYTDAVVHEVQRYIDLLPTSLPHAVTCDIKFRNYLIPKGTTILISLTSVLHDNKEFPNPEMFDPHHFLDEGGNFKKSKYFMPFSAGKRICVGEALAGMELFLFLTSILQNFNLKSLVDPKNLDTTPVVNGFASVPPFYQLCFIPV
# [27] = tested on: Mus musculus; assay: Toxicity in nude BALB/c mouse xenografted with human A2780 cells assessed as change in body weight at 20 mg/kg, po qd measured up to 12 days post dose; assay type: organism-based; conditions: in vivo, 288 h
# [28] = Unbound fraction in plasma (unknown origin); assay type: ADME, cell-free
# [29] = tested on: MFE-296; assay: Antitumor activity against human MFE296 cells xenografted in nude BALB/c mouse assessed as tumor growth inhibition at 15 mg/kg, po qd administered via gavage for 10 days; assay type: functional, organism-based
# [30] = Protein binding in plasma (unknown origin); assay type: ADME, cell-free; conditions: read-out: PPB (converted)
# [31] = tested on: SNU-16; assay: Antitumor activity against human SNU16 cells harboring luciferase orthotopically implanted in gastric mucosa of Balb/c nude mouse assessed as tumor growth inhibition at 20 mg/kg, po qd administered for 5 days per week for 3 weeks starting from 1 week post tumor implantation by luminescence imaging method; assay type: functional, organism-based
# [32] = tested on: BT-549; assay: Antiproliferative activity against paclitaxel-resistant human BT549 cells 10A clone up to 1000 nM after 72 hrs by ATPlite assay; assay type: functional, cell-based
# [33] = Half life in human liver microsomes; assay type: ADME, microsome
# [34] = Toxicity in mouse administered as single po dose; assay type: organism-based; conditions: in vivo
# [35] = tested on: MDA-MB-436; assay: Antiproliferative activity against paclitaxel-resistant human MDA-MB-436 cells 20A clone up to 1000 nM after 72 hrs by ATPlite assay; assay type: functional, cell-based
# [36] = tested on: A2780; assay: Antitumor activity against human A2780 cells xenografted in nude BALB/c mouse assessed as tumor growth inhibition at 20 mg/kg, po qd measured up to 12 days post dose; assay type: functional, organism-based
# [37] = tested on: Mus musculus; assay: Toxicity in nude BALB/c mouse xenografted with human A2780 cells assessed as change in body weight at 15 mg/kg, po administered every other day measured up to 12 days post dose; assay type: organism-based; conditions: in vivo, 288 h
# [38] = Stability in human plasma assessed as parent compound remaining after 24 hrs relative to initial time; assay type: ADME, cell-free; conditions: read-out: Stability
# [39] = tested on: MDA-MB-436; assay: Antiproliferative activity against paclitaxel-resistant human MDA-MB-436 cells 20B clone up to 1000 nM after 72 hrs by ATPlite assay; assay type: functional, cell-based
# [40] = tested on: MFE-296; assay: Antitumor activity against human MFE296 cells xenografted in nude BALB/c mouse assessed as tumor growth inhibition at 3.75 to 7.5 mg/kg, po qd administered via gavage for 10 days relative to control; assay type: functional
# [41] = Half life in rat liver microsomes; assay type: ADME, microsome
# [42] = biological target: Cytochrome P450 2D6 (Homo sapiens, UniProt P10635); assay: Inhibition of CYP2D6 (unknown origin); assay type: ADME
# Chain of Cytochrome P450 2D6 (P10635 whole entry): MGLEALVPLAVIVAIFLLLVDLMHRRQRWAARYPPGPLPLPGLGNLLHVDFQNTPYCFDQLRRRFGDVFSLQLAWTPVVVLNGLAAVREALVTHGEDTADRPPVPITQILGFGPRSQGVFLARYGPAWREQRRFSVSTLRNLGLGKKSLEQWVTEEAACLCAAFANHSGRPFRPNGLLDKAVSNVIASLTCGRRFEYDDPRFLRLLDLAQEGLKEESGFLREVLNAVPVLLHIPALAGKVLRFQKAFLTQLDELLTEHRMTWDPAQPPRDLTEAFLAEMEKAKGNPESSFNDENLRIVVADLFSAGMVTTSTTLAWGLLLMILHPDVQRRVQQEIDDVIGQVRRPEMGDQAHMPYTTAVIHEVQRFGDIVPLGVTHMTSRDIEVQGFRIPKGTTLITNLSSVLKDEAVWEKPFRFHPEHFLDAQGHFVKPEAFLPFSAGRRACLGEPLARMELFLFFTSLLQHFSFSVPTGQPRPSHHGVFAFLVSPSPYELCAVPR
# [43] = Stability in human plasma assessed as parent compound remaining after 8 hrs relative to initial time; assay type: ADME, cell-free; conditions: read-out: Stability
# [44] = Efflux ratio of apparent intrinsic permeability in human Caco2 cells after 120 mins by mass spectrometry; assay type: ADME, cell-based; conditions: Caco-2
# [45] = Tmax in rat administered as single po dose by mass spectrometry; assay type: ADME, organism-based; conditions: in vivo
compound,measurement,setting,value
Cc1ncc(C(=O)Nc2ccc(-c3cccc(C4CC4)c3)cn2)cn1,MTD,[1],≤ 6 mg/kg
same,TGI,[2],73%
same,Tmax,[3],≤ 15 min
Cc1ncc(C(=O)Nc2ccc(-c3cccc(S(=O)(=O)C4CC4)c3)cn2)cn1,Activity,[4],Toxic
same,Activity,[5],Active
same,TGI,[6],Active
same,remaining at 1.25 h,[7],93%
same,Activity,[8],Active
same,Activity,[9],Non-Toxic
same,IC50,[10],> 30 µM
same,Activity,[11],Active
same,IC50,[12],> 30 µM
same,half-life,[13],49.9 min
same,half-life,[14],67.4 min
same,Papp B→A at 2 h,[15],26.1 ×10⁻⁶ cm/s
same,TGI,[16],Active
same,Activity,[17],Active
same,remaining at 2 h,[18],111%
same,Activity,[19],Active
same,Papp A→B at 2 h,[20],25.7 ×10⁻⁶ cm/s
same,remaining at 4 h,[21],103%
same,Drug recovery,[22],87.2%
same,IC50,[23],> 30 µM
same,Activity,[24],Active
same,Activity,[25],Non-Toxic
same,IC50,[26],> 30 µM
same,Activity,[27],Toxic
same,fraction unbound,[28],0.022
same,TGI,[29],Active
same,fraction unbound,[30],0.022
same,TGI,[31],Active
same,Activity,[32],Active
same,half-life,[33],144 min
same,MTD,[34],≤ 20 mg/kg
same,MTD,[1],≤ 6 mg/kg
same,Activity,[35],Active
same,TGI,[36],Active
same,Activity,[37],Non-Toxic
same,remaining at 24 h,[38],115%
same,Activity,[39],Active
same,TGI,[40],>85%
same,half-life,[41],79.6 min
same,TGI,[2],109%
same,IC50,[42],> 30 µM
same,remaining at 8 h,[43],102%
same,efflux ratio at 2 h,[44],1.02
same,Tmax,[3],≤ 15 min
O=C(Nc1ccc(-c2cccc(Cl)c2)cn1)c1cncnc1,MTD,[1],≤ 6 mg/kg
same,TGI,[2],66%
COC(=O)c1ccccc1-c1c2ccc(=N)cc-2oc2cc(N)ccc12.Cl [RHODAMINE123],Papp B→A at 2 h,[15],7.17 ×10⁻⁶ cm/s
same,Papp A→B at 2 h,[20],0.61 ×10⁻⁶ cm/s
same,efflux ratio at 2 h,[44],11.7
Cc1ncc(C(=O)Nc2ccc(-c3cccc(OC4CC4)c3)cn2)cn1,Tmax,[45],15 min
same,remaining at 1.25 h,[7],89.4%
same,IC50,[10],> 30 µM
same,IC50,[12],> 30 µM
same,half-life,[13],20.6 min
same,half-life,[14],13.7 min
same,remaining at 2 h,[18],81.1%
same,remaining at 4 h,[21],91.5%
same,Drug recovery,[22],79.64%
same,IC50,[23],> 30 µM
same,IC50,[26],> 30 µM
same,Activity,[27],Non-Toxic
same,fraction unbound,[28],0.0061
same,fraction unbound,[30],0.0061
same,half-life,[33],144 min
same,MTD,[34],≤ 20 mg/kg
same,MTD,[1],≤ 6 mg/kg
same,TGI,[36],Active
same,remaining at 24 h,[38],89.7%
same,half-life,[41],10.9 min
same,TGI,[2],100%
same,IC50,[42],> 30 µM
same,remaining at 8 h,[43],74.1%
same,Tmax,[3],≤ 15 min
CC(C)NCC(O)COc1cccc2ccccc12 (configuration not stated) [PROPRANOLOL],Papp B→A at 2 h,[15],21.1 ×10⁻⁶ cm/s
same,Papp A→B at 2 h,[20],21.2 ×10⁻⁶ cm/s
same,efflux ratio at 2 h,[44],0.99
O=C(Nc1ccc(-c2cccc(C3CC3)c2)cn1)c1cncnc1,MTD,[1],≤ 6 mg/kg
same,TGI,[2],74%
same,Tmax,[3],≤ 15 min
